{"source": "patent US9265766B2", "about": "“Methods for altering mRNA splicing and treating familial dysautonomia by administering benzyladenine” (The General Hospital Corporation, priority 2003, dated 2016)", "key": {"[1]": {"system": "IKBKAP splicing (WT:MU IKBKAP mRNA)", "experiment": "WT:MU IKBKAP mRNA ratio by RT-PCR (IDV) in FD lymphoblast cell lines; drug screen", "format": "cell-based, human", "conditions": "for correct IKBKAP splicing / production of wild-type IKBKAP transcript in FD cells: 10 μM compound in DMSO, 72 hours, FD lymphoblast cell line", "experimental": "Drug Screen. The panel of 1040 independent compounds used was specifically designed for the NINDS sponsored Neurodegeneration Drug Screening Consortium (MicroSource Discovery Systems). A single FD lymphoblast cell line was cultured in 24 well format and treated with 10 μM compound dissolved in DMSO for 72 hours. RNA was extracted using Tri-Reagent™ (Molecular Research Center) and reverse transcription and IKBKAP PCR was performed as previously described^4.\nAn assay that provides stable and consistent measurement of the ratio of WT:MU FD IKBKAP mRNA splice products in lymphoblast cell lines was developed^4. This assay was employed as part of the Neurodegeneration Drug Screening Consortium′ to identify compounds that increase the relative production of WT mRNA. A single, standard FD lymphoblast cell line was assayed after 72 hours in the presence of 10 μM test drug, using compounds dissolved in DMSO."}, "[2]": {"system": "rat liver and kidney tissue", "conditions": "in vivo, po; cited from earlier work"}, "[3]": {"system": "SMN2 exon 7", "conditions": "cited from earlier work"}, "[4]": {"system": "MYO5A exon 31 splicing", "conditions": "reference 13; cited from earlier work"}, "[5]": {"system": "IKBKAP WT:MU transcript ratio", "experiment": "IKBKAP nonsense mediated decay analysis (cycloheximide) in FD lymphoblast cell lines", "format": "cell-based, human", "conditions": "50 μg/ml cycloheximide, four hours, FD cells", "description": "RT-PCR amplification and fractionation of the amplified product on a 1.5% agarose gel was performed on cell extracts. WT:MU IKBKAP transcript ratios were determined using the integrated density value (IDV) obtained for each band and are shown beneath each lane. Primer sequences and PCR conditions have been previously described^4\nCell Culture and Treatment.\nThe IVS20^+6T→C mutation in IKBKAP leads to a frameshift and a premature termination codon in exon 21, which is expected to target the mutant transcript for decay via the nonsense-mediated mRNA decay (NMD) pathway^15. […] FD cells were exposed to cycloheximide, a translation inhibitor, to inhibit NMD of the mutant transcript^16."}, "[6]": {"system": "IKBKAP mRNA (WT, MU, total)", "experiment": "Real-time quantitative PCR of IKBKAP transcripts in FD lymphoblast cells", "format": "cell-based, human", "conditions": "doses higher than 50 μM (data not shown)"}, "[7]": {"system": "FD lymphoblast cells", "experiment": "Cellular toxicity in FD lymphoblast cells", "format": "cell-based, human", "conditions": "400 μM", "description": "By contrast, total IKBKAP mRNA was relatively unaffected, with a slight increase (˜1.5 fold) being detected only at doses higher than 50 μM (data not shown)."}, "[8]": {"system": "IKAP protein", "experiment": "Western blot of IKAP protein in FD lymphoblast cell lines", "format": "cell-based, human", "conditions": "increasing concentrations of kinetin, 72 hours, FD lymphoblast cells", "excerpt": "Western Blot Analysis. […] Extracted protein was run on a 6% polyacrylamide gel. The samples were transferred to nitrocellulose and stained with Ponceau-S to visualize protein loading. IKAP was detected using a monoclonal antibody raised against amino acids 796-1008 of IKAP (BD Bioscience) that detects the 150 kD full-length IKAP protein. The same blot was probed with an antibody to insulin-degrading enzyme (IDE) as a protein loading control. Bands were quantitated using an Alpha 2000™ Image Analyzer."}, "[9]": {"system": "NF1 minigene (exons 35 to 37, C>T at 6724)", "experiment": "NF1 minigene splicing assay in HEK293 cells", "format": "cell-based, human", "conditions": "HEK293 cells transfected with NF1 minigene, with vs without kinetin", "description": "NF1 genomic DNA was amplified from an unaffected and an NF1 individual using primers at the 5′ end of exon 35 and the 3′ end of exon 37. […] The amplified products were cloned into pcDNA3.1/V5-His Topo (Invitrogen) and sequenced for verification. […] Minigene constructs were transiently transfected 12 hours later using Genejuice (Novagen) as directed by the manufacturer. After 48 hours RNA was isolated using the RNAeasy kit (Qiagen) and reverse transcribed using Superscript™ II reverse transcriptase (Invitrogen) as described^4. PCR was performed using vector specific primers: T7 ([…]) (SEQ ID NO:8) and BGHR ([…]) (SEQ ID NO:9), which amplify both WT and MU transcripts. PCR was performed as follows: 30 cycles of [94° C., 30 s; 58° C., 30 s; 72° C., 30 s] and products resolved on a 1.5% agarose gel and visualized by ethidium bromide staining."}, "[10]": {"system": "WT IKBKAP minigene exon 20", "experiment": "IKBKAP minigene splicing assay, WT construct in HEK293 cells", "format": "cell-based, human", "conditions": "for inclusion of exon 20, WT minigene construct: RT-PCR with T7 and BGH-R", "description": "(§1) In Vivo IKBKAP Minigene Splicing Assay. IKBKAP genomic DNA was amplified from an unaffected and an FD individual using primers in exon 19 and 21: EX19F-5′-[…] (SEQ ID NO:6) and EX21R-5′-[…] (SEQ ID NO:7). The amplified products were cloned into pcDNA3.1/V5-His Topo (Invitrogen) and sequenced for verification. […] Minigene constructs were transiently transfected 12 hours later using Genejuice (Novagen) as directed by the manufacturer. After 48 hours RNA was isolated using the RNAeasy kit (Qiagen) and reverse transcribed using Superscript™ II reverse transcriptase (Invitrogen) as described^4. PCR was performed using vector specific primers: T7 ([…]) (SEQ ID NO:8) and BGHR ([…]) (SEQ ID NO:9), which amplify both WT and MU transcripts, or the MU specific primer EX19/21F ([…]) (SEQ ID NO:10) and BGH-R to specifically amplify only MU transcripts. PCR was performed as follows: 26 cycles of [94° C., 30 s; 56° C., 30 s; 72° C., 30 s] and products resolved on a 1.5% agarose gel and visualized by ethidium bromide staining.\n(§2) These constructs were transfected into HEK293 cells and RNA was amplified using vector-specific primers to avoid amplification of the endogenous IKBKAP message. […] Introduction of the FD mutation into the construct increased exon 20 skipping as predicted."}, "[11]": {"system": "FD (MU) IKBKAP minigene exon 20", "experiment": "IKBKAP minigene splicing assay, FD (MU) construct in HEK293 cells", "format": "cell-based, human", "conditions": "RT-PCR with T7 and BGH-R", "description": "as §1, §2"}, "[12]": {"system": "human skin fibroblasts", "conditions": "cultured human skin fibroblasts; cited from earlier work"}}, "note": "Entries after “also recorded” stand apart in the source; their conditions may differ. Read-outs that look alike come from different tables or passages of the source.", "data": [{"smiles": "CC(C)=CCNc1ncnc2nc[nH]c12", "note": "[2iP, 6-(γ,γ-dimethyallylamino)purine, reference compound]", "values": [{"measurement": "effect on WT:MU IKBKAP ratio", "setting": "[1]; FD lymphoblast assay, tested at 1, 10, 50 and 100 μM", "value": "neither zeatin nor 2iP (dissolved in DMSO at 10 mM) had any effect"}]}, {"smiles": "O=C(O)Cc1c[nH]c2ccccc12", "note": "[IAA, indoleacetic acid, reference compound]", "values": [{"measurement": "lipid peroxidation in liver and kidney tissue", "setting": "[2]", "value": "resulting in lipid peroxidation synthesis"}]}, {"smiles": "CC[C@@]1(O)C[C@H](O[C@H]2C[C@H](N(C)C)[C@H](O[C@H]3C[C@H](O)[C@H](O[C@H]4CCC(=O)[C@H](C)O4)[C@H](C)O3)[C@H](C)O2)c2c(cc3c(c2O)C(=O)c2c(O)cccc2C3=O)[C@H]1C(=O)OC", "note": "[aclarubicin, reference compound]", "values": [{"measurement": "effect on exon 7 of SMN2", "setting": "[3]", "value": "can promote the inclusion of exon 7"}, {"measurement": "correct IKBKAP splicing / production of wild-type IKBKAP transcript in FD cells", "setting": "[1]", "value": "no effect on IKBKAP splicing"}, {"measurement": "inclusion of alternatively spliced exons in MYO5A (literature)", "setting": "[4]", "value": "neither of these drugs promotes inclusion"}]}, {"smiles": "c1ccc(CNc2ncnc3nc[nH]c23)cc1", "note": "[benzyladenine, 6-benzylaminopurine]", "values": [{"measurement": "enhancement of inclusion of exon 20 in IKBKAP transcripts", "setting": "[1]; by 100 μM, FD lymphoblast assay", "value": "approximately 2 fold"}]}, {"smiles": "C[C@@H]1C[C@@H]([C@H](O)CC2CC(=O)NC(=O)C2)C(=O)[C@@H](C)C1", "note": "[cycloheximide]", "values": [{"measurement": "WT:MU IKBKAP transcript ratio, cycloheximide alone", "setting": "[5]", "value": "decreasing the WT:MU transcript ratio"}]}, {"smiles": "c1coc(CNc2ncnc3nc[nH]c23)c1", "note": "[kinetin, 6-furfurylaminopurine]", "values": [{"measurement": "toxicity when administered orally to rats", "setting": "[2]", "value": "much less toxicity as compared to indoleacetic acid"}, {"measurement": "increase in total IKBKAP mRNA", "setting": "[6]", "value": "~1.5", "unit": "fold"}, {"measurement": "effect on exon 7 of SMN2", "setting": "[3]", "value": "no effect on skipping of exon 7"}, {"measurement": "correct IKBKAP splicing / production of wild-type IKBKAP transcript in FD cells", "setting": "[1]", "value": "dramatically enhanced correct splicing"}, {"measurement": "correct IKBKAP splicing / production of wild-type IKBKAP transcript in FD cells", "setting": "[1]; listed as Kinetin", "value": "significantly increases production of wild-type IKBKAP transcript"}, {"measurement": "MU IKBKAP band by densitometry", "setting": "[1]; 100 μM kinetin, RT-PCR gel", "value": "barely discernable"}, {"measurement": "cellular toxicity", "setting": "[7]", "value": "some cellular toxicity"}, {"measurement": "IKAP protein production", "setting": "[8]", "value": "increase in production of IKAP protein"}, {"measurement": "splicing of NF1 minigene", "setting": "[9]", "value": "altered splicing"}, {"measurement": "exon 20 skipping in WT construct transcripts (MU-specific PCR)", "setting": "[10]; MU-specific primer EX19/21F", "value": "completely corrected; also recorded: absence of MU transcript in the WT lane"}, {"measurement": "inclusion of exon 20, WT minigene construct", "setting": "[10]", "value": "enhanced inclusion of exon 20"}, {"measurement": "inclusion of exon 20, WT minigene construct", "setting": "[10]; listed as Kinetin", "value": "enhances inclusion of exon 20"}, {"measurement": "inclusion of exon 20, FD (MU) minigene construct", "setting": "[11]", "value": "enhanced inclusion of exon 20"}, {"measurement": "inclusion of exon 20, FD (MU) minigene construct", "setting": "[11]; listed as Kinetin", "value": "enhances inclusion of exon 20"}, {"measurement": "cellular changes associated with in vitro aging of human skin cells", "setting": "[12]", "value": "delay or prevent a range of cellular changes"}, {"measurement": "maximum in vitro life span of human skin cells", "setting": "[12]", "value": "did not alter"}]}, {"smiles": "CC(=CCNc1ncnc2nc[nH]c12)CO", "note": "[zeatin, 6-(4-hydroxy-3-methylbut-2-enylamino)purine, reference compound]", "values": [{"measurement": "effect on WT:MU IKBKAP ratio", "setting": "[1]", "value": "neither zeatin nor 2iP (dissolved in DMSO at 10 mM) had any effect"}]}]}
